{"source": "paper PMC5321639", "about": "“Design and pharmacodynamics of recombinant NZ2114 histidine mutants with improved activity against methicillin-resistant Staphylococcus aureus” (AMB Express, 2017)", "key": {"[1]": {"tested_on": "S. aureus ATCC43300 (MRSA)", "test": "Time-kill curve assay", "format": "cell-based, Staphylococcus aureus", "settings": "for time for bacterial counts to decrease to 2 log10 CFU/ml (a 99.9% reduction): start 1 × 10^5 CFU/ml, 37 °C, triplicate", "experimental": "Bacterial culture (S. aureus ATCC43300) was diluted to 1 × 10^5 CFU/ml and H1, H2, and H3 were added. […] The mixture was cultivated at 250 rpm, 37 °C. The 100-µl samples were taken from each flask at 0, 2, 4, 6, 8, 12 and 24 h of incubation, and serial dilutions of samples were plated to count visible colonies. Vancomycin was tested in the same way as a positive control and the culture without antimicrobial agent as a negative control (Xiong et al. [2011]). All experiments were performed in triplicate."}, "[2]": {"tested_on": "S. aureus ATCC43300", "test": "Postantibiotic effect (PAE)", "format": "cell-based, Staphylococcus aureus", "settings": "2 h exposure at 37 °C, 1 × 10^8 CFU/ml, drug removed by 1:10^3 dilution, mean ± SD, n = 3", "experimental": "After 2 h, the drug was removed by diluting 1:10^3 into the MHB and incubated at 37 °C, 250 rpm. The sample was taken to plate counting every 1 h until the bacterial cultures become turbid. The PAE was calculated by the following formula: PAE = T − C, where T is the time needed for the count of CFU in the test culture to increase 1 log10 (10-fold) above the 0 h and C is the time needed for the count of CFU in the untreated control culture to increase 1 log10 above the 0 h (Giguère et al. [2012])."}, "[3]": {"tested_on": "S. aureus ATCC43300", "test": "microbe, parasite or virus in culture", "format": "cell-based, Staphylococcus aureus", "settings": "for MICc (MIC of the most effective combination): checkerboard; for MIC: read-out: MICa (MIC of drug alone); for FIC: MICc/MICa", "experimental": "The MIC values of four antibiotics (vancomycin, ampicillin, rifampicin and ciprofloxacin) to S. aureus ATCC43300 were tested as the MIC assay described above. The peptide solutions and antibiotics were diluted twofold with the final concentrations ranging from 1/16 to 8× MIC, and added into 96-well plates in a checkerboard fashion (White et al. [1996]). The results of combination were evaluated by calculating the fractional inhibitory concentration index (FICI) of each combination. FIC of H1, H2, H3=MIC of H1, H2, H3, respectively, in combination with antibiotic/MIC of H1, H2, H3 alone; FIC of antibiotics=MIC of antibiotic in combination with peptide/MIC of antibiotic alone; FICI = FIC of H1, H2, H3+ antibiotic, respectively. The result of interaction between two antimicrobial drugs was determined according to: FICI ≤ 0.5 refers to synergy, 0.5 < FICI ≤ 1 refers to additivity, 1 < FICI ≤ 4 refers to indifference, and FICI > 4 is defined as antagonism (Tsuji and Rybak [2006])."}, "[4]": {"tested_on": "S. aureus ATCC43300", "test": "Effect of pH on activity (MIC)", "format": "cell-based, Staphylococcus aureus", "settings": "then MIC assay", "experimental": "(§1) The peptide solutions were diluted twofold with the range of final concentrations were 0.015–32 µg/ml (0.003–7.273 µM) for purified H1, H2, H3, H6, and H8. The test strains were grown in MHB medium at 37 °C to an OD600 of 0.4 and diluted to 1 × 10^5 CFU/ml. The 10 µl peptide and 90 µl cell suspension were added into each well. All assays were performed in triplicate. The antimicrobial activity of NZ2114 and vancomycin were tested as positive controls. The plates were incubated at 37 °C for 18–24 h. MIC was defined as the lowest peptide concentration of ones at which there was no visible growth (Tian et al. [2009]).\n(§2) The effect of pH, temperature, NaCl concentration and proteinase on the activity of peptides was evaluated. Peptides were diluted twofold, then adjusted to a pH range from 2.0 to 10.0 and incubated at 37 °C for 4 h. The thermal stability of purified peptides was determined after 1-h incubation of peptides at 4, 20, 40, 60, 80 and 100 °C in deionized water, respectively. Aliquots of peptides were incubated in various proteinases solutions [pepsin (pH 2.0), trypsin (pH 8.0), proteinase K (pH 7.0)] at a ratio of 1:10, w/w (proteinase: peptide) at 37 °C for 3 h. For the ion stability, peptides were incubated in 50, 100, 200, 300, 400, 500 mM sodium chloride solutions, respectively. Other methods and conditions were prepared as the MIC assay described above (Li et al. [2015]; Qu et al. [2016])."}, "[5]": {"tested_on": "S. aureus ATCC43300", "test": "Effect of temperature on activity (MIC)", "format": "cell-based, Staphylococcus aureus", "settings": "then MIC assay", "experimental": "as §1, §2"}, "[6]": {"tested_on": "S. aureus ATCC43300", "test": "Effect of NaCl concentration on activity (MIC)", "format": "cell-based, Staphylococcus aureus", "experimental": "as §1, §2"}, "[7]": {"tested_on": "S. aureus ATCC43300", "test": "Effect of proteinases on activity (MIC)", "format": "cell-based, Staphylococcus aureus", "settings": "1:10 w/w proteinase:peptide, 37 °C for 3 h, then MIC assay", "experimental": "as §1, §2"}, "[8]": {"settings": "conventional antibiotics; ref Pankuch and Appelbaum [2009b]; Pankuch et al. [2003]; Watanabe et al. [1997]; cited from earlier work", "text": "The PAE is a very important pharmacodynamics parameter in choosing of antibiotic dosage regimens in clinical use (Pankuch and Appelbaum [2009a])."}}, "note": "Where two headings read alike, the source gives them in different places. Where a SMILES comes first, the peptide text is derived from it. Bridges are numbered along the chain shown (N, C = ends)."}
{"compound": "CC[C@H](C)[C@@H]1NC(=O)[C@H](CO)NC(=O)[C@H](CCCCN)NC(=O)[C@@H]2CSSC[C@@H](C(=O)N[C@@H](Cc3ccc(O)cc3)C(=O)O)NC(=O)[C@H](CCCCN)NC(=O)[C@@H]3CSSC[C@H](NC(=O)[C@H](CCCNC(=N)N)NC(=O)[C@H](CC(C)C)NC(=O)[C@H](CC(=O)O)NC(=O)[C@H](CC(=O)O)NC(=O)[C@H](CCC(=O)O)NC(=O)[C@H](CC(N)=O)NC(=O)[C@H](Cc4c[nH]c5ccccc45)NC(=O)[C@@H]4CCCN4C(=O)CNC(=O)[C@H](CC(N)=O)NC(=O)[C@@H](NC(=O)CNC(=O)[C@H](Cc4ccccc4)NC(=O)CN)CSSC[C@H](NC(=O)[C@H](Cc4ccc(O)cc4)NC(=O)CNC(=O)CNC(=O)[C@H](CCCCN)NC(=O)[C@H](Cc4ccc(O)cc4)NC(=O)CNC(=O)[C@H](CCCCN)NC1=O)C(=O)N[C@@H](C)C(=O)N[C@@H](CCCCN)C(=O)NCC(=O)NCC(=O)N[C@@H](Cc1ccccc1)C(=O)N[C@@H](C(C)C)C(=O)N3)C(=O)N[C@@H](CCCCN)C(=O)N[C@@H](CC(N)=O)C(=O)N[C@@H](Cc1c[nH]cn1)C(=O)N2", "note": "[H1] (H-GFGCNGPWNEDDLRCKNHCKSIKGYKGGYCAKGGFVCKCY-OH; disulfide 4-30, 15-37, 19-39; N-terminus and C-terminus assumed)", "values": [{"measurement": "incubation time after which regrowth occurred", "setting": "[1]; 1× MIC", "result": 8, "unit": "h"}, {"measurement": "time for bacterial counts to decrease to 2 log10 CFU/ml (a 99.9% reduction)", "setting": "[1]; 1× MIC", "result": 6, "unit": "h"}, {"measurement": "incubation time after which regrowth occurred", "setting": "[1]; 2× MIC", "result": 12, "unit": "h"}, {"measurement": "bacterial counts at 24 h after regrowth", "setting": "[1]; 2× MIC, 24 h", "result": 3.40, "unit": "log10 CFU/ml"}, {"measurement": "time for bacterial counts to decrease to 2 log10 CFU/ml (a 99.9% reduction)", "setting": "[1]; 2× MIC", "result": 1.5, "unit": "h"}, {"measurement": "time for bacterial counts to decrease to 2 log10 CFU/ml (a 99.9% reduction)", "setting": "[1]; 4× MIC", "result": 1, "unit": "h"}, {"measurement": "PAE", "setting": "[2]; 1× MIC", "result": "0.90 ± 0.04", "unit": "h"}, {"measurement": "PAE", "setting": "[2]; 2× MIC", "result": "2.94 ± 0.07", "unit": "h"}, {"measurement": "MICc (MIC of the most effective combination)", "setting": "[3]; in combination with ampicillin", "result": 0.014, "unit": "µM"}, {"measurement": "MICc (MIC of the most effective combination)", "setting": "[3]; in combination with ciprofloxacin", "result": 0.028, "unit": "µM"}, {"measurement": "MICc (MIC of the most effective combination)", "setting": "[3]; in combination with rifampicin", "result": 0.056, "unit": "µM"}, {"measurement": "MICc (MIC of the most effective combination)", "setting": "[3]; in combination with vancomycin", "result": 0.056, "unit": "µM"}, {"measurement": "MIC", "setting": "[3]; drug alone", "result": 0.056, "unit": "µM"}, {"measurement": "MIC after incubation at pH2", "setting": "[4]; pH 2, 37 °C for 4 h", "result": 0.057, "unit": "μM"}, {"measurement": "MIC after incubation at pH4", "setting": "[4]; pH 4, 37 °C for 4 h", "result": 0.057, "unit": "μM"}, {"measurement": "MIC after incubation at pH6", "setting": "[4]; pH 6, 37 °C for 4 h", "result": 0.057, "unit": "μM"}, {"measurement": "MIC after incubation at pH8", "setting": "[4]; pH 8, 37 °C for 4 h", "result": 0.057, "unit": "μM"}, {"measurement": "MIC after incubation at 4 °C", "setting": "[5]; 1 h at 4 °C in deionized water", "result": 0.057, "unit": "µM"}, {"measurement": "MIC after incubation at 20 °C", "setting": "[5]; 1 h at 20 °C in deionized water", "result": 0.057, "unit": "µM"}, {"measurement": "MIC after incubation at 40 °C", "setting": "[5]; 1 h at 40 °C in deionized water", "result": 0.057, "unit": "µM"}, {"measurement": "MIC after incubation at 60 °C", "setting": "[5]; 1 h at 60 °C in deionized water", "result": 0.057, "unit": "µM"}, {"measurement": "MIC after incubation at 80 °C", "setting": "[5]; 1 h at 80 °C in deionized water", "result": 0.057, "unit": "µM"}, {"measurement": "MIC in 50 mM NaCl", "setting": "[6]; incubated in 50 mM sodium chloride solution", "result": 0.057, "unit": "µM"}, {"measurement": "MIC in 100 mM NaCl", "setting": "[6]; incubated in 100 mM sodium chloride solution", "result": 0.057, "unit": "µM"}, {"measurement": "MIC in 200 mM NaCl", "setting": "[6]; incubated in 200 mM sodium chloride solution", "result": 0.057, "unit": "µM"}, {"measurement": "MIC in 300 mM NaCl", "setting": "[6]; incubated in 300 mM sodium chloride solution", "result": 0.057, "unit": "µM"}, {"measurement": "MIC in 400 mM NaCl", "setting": "[6]; incubated in 400 mM sodium chloride solution", "result": 0.057, "unit": "µM"}, {"measurement": "MIC in 500 mM NaCl", "setting": "[6]; incubated in 500 mM sodium chloride solution", "result": 0.057, "unit": "µM"}, {"measurement": "MIC after Proteinase K", "setting": "[7]; proteinase K (pH 7.0)", "result": 0.057, "unit": "µM"}, {"measurement": "MIC after Trypsin", "setting": "[7]; trypsin (pH 8.0)", "result": 0.057, "unit": "µM"}]}
{"compound": "NCC[C@H](O)C(=O)N[C@@H]1C[C@H](N)[C@@H](O[C@H]2O[C@H](CN)CC[C@H]2N)[C@H](O)[C@H]1O[C@H]1O[C@H](CO)[C@@H](O)[C@H](N)[C@H]1O", "note": "[arbekacin]", "values": [{"measurement": "PAE", "setting": "[8]", "result": "3.0 to 3.2", "unit": "h"}]}
{"compound": "CO[C@H]1/C=C/O[C@@]2(C)Oc3c(C)c(O)c4c(O)c(c(/C=N/N5CCN(C)CC5)c(O)c4c3C2=O)NC(=O)/C(C)=C\\C=C\\[C@H](C)[C@H](O)[C@@H](C)[C@@H](O)[C@@H](C)[C@H](OC(C)=O)[C@@H]1C", "note": "[rifampicin]", "values": [{"measurement": "MIC", "setting": "[3]; Staphylococcus aureus, ATCC43300", "result": 0.019, "unit": "µM"}, {"measurement": "MICc (MIC of the most effective combination)", "setting": "[3]; in combination with H1", "result": 0.019, "unit": "µM"}, {"measurement": "MICc (MIC of the most effective combination)", "setting": "[3]; in combination with H2", "result": 0.019, "unit": "µM"}, {"measurement": "MICc (MIC of the most effective combination)", "setting": "[3]; in combination with H3", "result": 0.038, "unit": "µM"}, {"measurement": "FIC", "setting": "[3]; in combination with H1", "result": 1}, {"measurement": "FIC", "setting": "[3]; in combination with H2", "result": 1}, {"measurement": "FIC", "setting": "[3]; in combination with H3", "result": 2}]}
{"compound": "CN(C)c1cc(NC(=O)CNC(C)(C)C)c(O)c2c1C[C@H]1C[C@H]3[C@H](N(C)C)C(O)=C(C(N)=O)C(=O)[C@@]3(O)C(O)=C1C2=O", "note": "[tigecycline]", "values": [{"measurement": "PAE", "setting": "[8]", "result": 3.2, "unit": "h"}]}
{"compound": "daptomycin", "values": [{"measurement": "PAE", "setting": "[8]", "result": 2.0, "unit": "h"}]}
